Source: patent US12048766B2, “Gamma polyglutamated tetrahydrofolates and uses thereof” (L.E.A.F. HOLDINGS GROUP LLC, priority 2018, dated 2024)

What was measured:
[1] = system: CCD841 colon epithelium cells; assay: Toxicity on CCD841 colon epithelium cells; type: cell-based; conditions: all concentrations tested (16 to 128 nM); 48 hours; FIG. 15
From the text: (§1) Methodologies used for cell line AML12 (non-cancerous liver cells) and CCD841 (non-cancerous colon epithelial cells) are similar to the methods used for cancer cells.

AML12 liver cells = assay: Toxicity on AML12 liver cells; type: cell-based; conditions: all doses studied (16 to 128 nM); 48 hours; FIG. 14
From the text: as §1

HT-29 (colon cancer) = assay: CellTiter-Glo luminescent cell viability assay, HT-29; type: cell-based, human; conditions: 48 hours, FIG. 3
Experimental: Luciferase luminescence were recorded for each well.

Row | Compound | decrease in the number of CCD841 colon epithelium cells [1] [%] | reduction in AML12 liver cell counts (AML12 liver cells) | potency rank among test articles (HT-29 (colon cancer))
1 | Nc1nc2[nH]cc(CCc3ccc(C(=O)N[C@@H](CCC(=O)O)C(=O)O)cc3)c2c(=O)[nH]1 [pemetrexed] | ≥ 50 | approximately 40% | 
2 | Nc1nc(=O)c2c(CCc3ccc(C(=O)N[C@@H](CCC(=O)N[C@@H](CCC(=O)N[C@@H](CCC(=O)N[C@@H](CCC(=O)N[C@@H](CCC(=O)N[C@@H](CCC(=O)O)C(=O)O)C(=O)O)C(=O)O)C(=O)O)C(=O)O)C(=O)O)cc3)c[nH]c2[nH]1 [gG6, pemetrexed L-gamma hexaglutamate] |  |  | least potent
